According to the supplement of paper PMC10307832:

Columns and labels:
Experiment in all cases: relative viability (nuclei count vs DMSO), 5 days (fraction); higher = more cells survive
AZD8055 + Navitoclax = compound: COc1ccc(-c2ccc3c(N4CCOC[C@@H]4C)nc(N4CCOC[C@@H]4C)nc3n2)cc1CO [AZD8055] + CC1(C)CCC(c2ccc(Cl)cc2)=C(CN2CCN(c3ccc(C(=O)NS(=O)(=O)c4ccc(N[C@H](CCN5CCOCC5)CSc5ccccc5)c(S(=O)(=O)C(F)(F)F)c4)cc3)CC2)C1 [Navitoclax] (partner 0.5 µM)
In short: (§1)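 Relative viability divides the nuclei count in treated wells by that in vehicle wells. Lung cancer cell lines were seeded in 1536-well plates, dosed by pin tool the next day, and fixed and stained after 5 days in one step with final 0.05% Triton X-100, 1% formaldehyde and 1 ug/ml Hoechst. Dosing was a single drug or a fixed anchor-drug dose plus five library-drug doses (not always all listed) in √10 steps, and values are medians of duplicate plates imaged at 4×.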

AZD8055 + Vorinostat = compound: COc1ccc(-c2ccc3c(N4CCOC[C@@H]4C)nc(N4CCOC[C@@H]4C)nc3n2)cc1CO [AZD8055] + O=C(CCCCCCC(=O)Nc1ccccc1)NO [Vorinostat] (partner 1 µM)
In short: as §1

AZD8055 + Crizotinib = compound: COc1ccc(-c2ccc3c(N4CCOC[C@@H]4C)nc(N4CCOC[C@@H]4C)nc3n2)cc1CO [AZD8055] + C[C@@H](Oc1cc(-c2cnn(C3CCNCC3)c2)cnc1N)c1c(Cl)ccc(F)c1Cl [Crizotinib] (partner 1 µM)
In short: as §1

AZD8055 + Tozasertib = compound: COc1ccc(-c2ccc3c(N4CCOC[C@@H]4C)nc(N4CCOC[C@@H]4C)nc3n2)cc1CO [AZD8055] + Cc1cc(Nc2cc(N3CCN(C)CC3)nc(Sc3ccc(NC(=O)C4CC4)cc3)n2)n[nH]1 [Tozasertib] (partner 0.1 µM)
In short: as §1

Row | Cell Line | relative viability (AZD8055 + Navitoclax; first compound 0.01 µM) | relative viability (AZD8055 + Navitoclax; first compound 0.03162 µM) | relative viability (AZD8055 + Navitoclax; first compound 0.1 µM) | relative viability (AZD8055 + Navitoclax; first compound 0.3162 µM) | relative viability (AZD8055 + Navitoclax; first compound 1 µM) | relative viability (AZD8055 + Vorinostat; first compound 0.01 µM) | relative viability (AZD8055 + Vorinostat; first compound 0.03162 µM) | relative viability (AZD8055 + Vorinostat; first compound 0.1 µM) | relative viability (AZD8055 + Vorinostat; first compound 0.3162 µM) | relative viability (AZD8055 + Vorinostat; first compound 1 µM) | relative viability (AZD8055 + Crizotinib; first compound 0.01 µM) | relative viability (AZD8055 + Crizotinib; first compound 0.03162 µM) | relative viability (AZD8055 + Crizotinib; first compound 0.1 µM) | relative viability (AZD8055 + Crizotinib; first compound 0.3162 µM) | relative viability (AZD8055 + Crizotinib; first compound 1 µM) | relative viability (AZD8055 + Tozasertib; first compound 0.01 µM) | relative viability (AZD8055 + Tozasertib; first compound 0.03162 µM) | relative viability (AZD8055 + Tozasertib; first compound 0.1 µM) | relative viability (AZD8055 + Tozasertib; first compound 0.3162 µM) | relative viability (AZD8055 + Tozasertib; first compound 1 µM)
1 | COR-L 105 | 0.914 | 0.961 | 0.596 | 0.358 | 0.39 | 0.865 | 0.766 | 0.805 | 0.516 | 0.421 | 0.807 | 0.875 | 0.706 | 0.465 | 0.292 | 0.326 | 0.354 | 0.304 | 0.282 | 0.27
2 | LK-2 | 0.797 | 0.584 | 0.441 | 0.216 | 0.241 | 0.3 | 0.172 | 0.271 | 0.167 | 0.157 | 0.231 | 0.188 | 0.267 | 0.205 | 0.211 | 0.147 | 0.133 | 0.182 | 0.15 | 0.154
3 | NCI-H727 | 0.432 | 0.397 | 0.324 | 0.168 | 0.215 | 1.3 | 1.12 | 1.18 | 0.869 | 0.778 | 0.994 | 0.896 | 0.536 | 0.292 | 0.279 | 0.849 | 0.77 | 0.499 | 0.414 | 0.487
4 | RERF-LC-KJ | 0.925 | 0.838 | 0.586 | 0.428 | 0.333 | 0.819 | 0.665 | 0.575 | 0.446 | 0.384 | 0.863 | 0.974 | 0.756 | 0.578 | 0.452 | 0.519 | 0.556 | 0.421 | 0.333 | 0.299
5 | NCI-H2023 | 0.951 | 0.871 | 0.598 | 0.249 | 0.181 | 0.65 | 0.405 | 0.335 | 0.14 | 0.115 | 0.521 | 0.507 | 0.339 | 0.119 | 0.119 | 0.314 | 0.325 | 0.258 | 0.115 | 0.109
6 | NCI-H1648 |  |  |  |  |  | 0.501 | 0.451 | 0.293 | 0.287 | 0.273 |  |  |  |  |  | 0.461 | 0.702 | 0.34 | 0.232 | 0.226
7 | NCI-H522 |  |  |  |  |  | 0.898 | 0.731 | 0.876 | 0.666 | 0.499 |  |  |  |  |  | 0.571 | 0.544 | 0.421 | 0.421 | 0.425
8 | NCI-H1793 | 0.363 | 0.288 | 0.205 | 0.229 | 0.163 | 0.567 | 0.387 | 0.271 | 0.188 | 0.224 |  |  |  |  |  | 0.299 | 0.219 | 0.154 | 0.136 | 0.145
9 | NCI-H2342 |  |  |  |  |  | 0.766 | 0.702 | 0.651 | 0.501 | 0.53 |  |  |  |  |  | 0.477 | 0.423 | 0.395 | 0.345 | 0.371
10 | ABC-1 |  |  |  |  |  | 1.07 | 1.15 | 1.12 | 0.466 | 0.533 | 1.09 | 1.04 | 0.812 | 0.602 | 0.479 | 0.186 | 0.187 | 0.174 | 0.196 | 0.19
11 | NCI-H661 |  |  |  |  |  | 0.866 | 0.791 | 0.707 | 0.465 | 0.4 | 1.06 | 1.1 | 1.07 | 0.634 | 0.567 | 0.329 | 0.376 | 0.376 | 0.356 | 0.359
12 | NCI-H358 |  |  |  |  |  | 0.775 | 0.701 | 0.624 | 0.207 | 0.121 | 0.678 | 0.934 | 0.69 | 0.442 | 0.211 | 0.0893 | 0.121 | 0.102 | 0.0607 | 0.0813
13 | EBC-1 | 0.312 | 0.187 | 0.213 | 0.182 | 0.205 |  |  |  |  |  | 0.155 | 0.204 | 0.197 | 0.221 | 0.219 |  |  |  |  | 
14 | NCI-H650 |  |  |  |  |  | 0.496 | 0.352 | 0.478 | 0.231 | 0.146 | 0.763 | 0.712 | 0.626 | 0.395 | 0.292 | 0.817 | 0.711 | 0.601 | 0.381 | 0.333
15 | NCI-H1792 | 0.89 | 0.518 | 0.51 | 0.13 | 0.086 |  |  |  |  |  | 0.927 | 0.82 | 0.82 | 0.173 | 0.157 |  |  |  |  | 
16 | A549 | 1.21 | 0.74 | 0.454 | 0.189 | 0.143 |  |  |  |  |  | 0.674 | 0.689 | 0.324 | 0.231 | 0.0846 |  |  |  |  | 
17 | NCI-H1703 | 0.944 | 0.702 | 0.517 | 0.292 | 0.337 |  |  |  |  |  | 0.635 | 0.489 | 0.508 | 0.4 | 0.222 |  |  |  |  | 
18 | LCLC-103H |  |  |  |  |  | 0.825 | 0.765 | 0.619 | 0.445 | 0.437 | 1.04 | 0.918 | 0.719 | 0.807 | 0.484 | 0.493 | 0.494 | 0.399 | 0.367 | 0.25
19 | NCI-H1563 |  |  |  |  |  |  |  |  |  |  | 0.769 | 0.81 | 0.697 | 0.6 | 0.679 |  |  |  |  | 
20 | NCI-H1395 | 1.4 | 0.97 | 0.797 | 0.654 | 0.498 | 0.683 | 0.448 | 0.621 | 0.422 | 0.461 |  |  |  |  |  | 0.752 | 0.581 | 0.562 | 0.488 | 0.44
